US9944635B2, “Deuterated pyrazino[2,1-a]isoquinoline compounds and methods of treatment using the same” (Concert Pharmaceuticals, Inc., priority 2011, dated 2018)
Where two headings read alike, the source gives them in different places.

Legend:
[1] = Metabolic stability in human liver microsomes (in vitro half-life); assay type: in vitro ADME
Procedure: Human liver microsomes (20 mg/mL) are obtained from Xenotech, LLC (Lenexa, Kans.). β-nicotinamide adenine dinucleotide phosphate, reduced form (NADPH), magnesium chloride (MgCl2), and dimethyl sulfoxide (DMSO) are purchased from Sigma-Aldrich. 7.5 mM stock solutions of test compounds were prepared in DMSO. The 7.5 mM stock solutions were diluted to 50 μM in acetonitrile (ACN). The 20 mg/mL human liver microsomes were diluted to 0.625 mg/mL in 0.1 M potassium phosphate buffer, pH 7.4, containing 3 mM MgCl2. The diluted microsomes were added to wells of a 96-well deep-well polypropylene plate in triplicate. A 10 μL aliquot of the 50 μM test compound was added to the microsomes and the mixture was pre-warmed for 10 minutes. Reactions were initiated by addition of pre-warmed NADPH solution. The final reaction volume was 0.5 mL and contained 0.5 mg/mL human liver microsomes, 1.0 μM test compound, and 2 mM NADPH in 0.1 M potassium phosphate buffer, pH 7.4, and 3 mM MgCl2. The reaction mixtures were incubated at 37° C., and 50 μL aliquots were removed at 0, 5, 10, 20, and 30 minutes and added to shallow-well 96-well plates which contained 50 μL of ice-cold ACN with internal standard to stop the reactions. The plates were stored at 4° C. for 20 minutes after which 100 μL of water was added to the wells of the plate before centrifugation to pellet precipitated proteins. Supernatants were transferred to another 96-well plate and analyzed for amounts of parent remaining by LC-MS/MS using an Applied Bio-systems API 4000 mass spectrometer. […] Testing was done in triplicate.

[2] = FDA label for BILTRICIDE; cited from earlier work
schistosoma = settings: enantiomer comparison, Meyer et al. 2009; cited from earlier work
[3] = pH 7.4, Table 3, 0.5 mg/mL HLM, 1.0 μM test compound, 2 mM NADPH, 37° C., read-out: Half-life (t½) Run No. 9
[4] = pH 7.4, Table 3, 0.5 mg/mL HLM, 1.0 μM test compound, 2 mM NADPH, 37° C., read-out: Half-life (t½) Run No. 10
[5] = pH 7.4, Table 3, 0.5 mg/mL HLM, 1.0 μM test compound, 2 mM NADPH, 37° C., read-out: Half-life (t½) Run No. 11
[6] = pH 7.4, Table 3, 0.5 mg/mL HLM, 1.0 μM test compound, 2 mM NADPH, 37° C., read-out: Half-life (t½) Run No. 12
[7] = pH 7.4, Table 3, average of runs 9-12, read-out: Half-life (t½) AVE ± SD
[8] = pH 7.4, Table 2, 0.5 mg/mL HLM, 1.0 μM test compound, 2 mM NADPH, 37° C., read-out: t1/2 Run No. 5
[9] = pH 7.4, Table 2, 0.5 mg/mL HLM, 1.0 μM test compound, 2 mM NADPH, 37° C., read-out: t1/2 Run No. 6
[10] = pH 7.4, Table 2, 0.5 mg/mL HLM, 1.0 μM test compound, 2 mM NADPH, 37° C., read-out: t1/2 Run No. 7
[11] = pH 7.4, Table 2, 0.5 mg/mL HLM, 1.0 μM test compound, 2 mM NADPH, 37° C., read-out: t1/2 Run No. 8
[12] = pH 7.4, Table 2, average of runs 5-8, read-out: t1/2 AVE ± SD
[13] = pH 7.4, Table 1, 0.5 mg/mL HLM, 1.0 μM test compound, 2 mM NADPH, 37° C., read-out: t1/2 Run No. 4
[14] = pH 7.4, Table 1, average of runs 1-4, read-out: t1/2 AVE ± SD
[15] = pH 7.4, Table 1, 0.5 mg/mL HLM, 1.0 μM test compound, 2 mM NADPH, 37° C., read-out: t1/2 Run No. 1
[16] = pH 7.4, Table 1, 0.5 mg/mL HLM, 1.0 μM test compound, 2 mM NADPH, 37° C., read-out: t1/2 Run No. 2
[17] = pH 7.4, Table 1, 0.5 mg/mL HLM, 1.0 μM test compound, 2 mM NADPH, 37° C., read-out: t1/2 Run No. 3

| SMILES | half-life at 1 μM [1, 3] | half-life at 1 μM [1, 4] | half-life at 1 μM [1, 5] | half-life at 1 μM [1, 6] | half-life at 1 μM [1, 7] | half-life at 1 μM [1, 8] | half-life at 1 μM [1, 9] | half-life at 1 μM [1, 10] | half-life at 1 μM [1, 11] | half-life at 1 μM [1, 12] | half-life at 1 μM [1, 13] | half-life at 1 μM [1, 14] | also measured |
| --- | --- | --- | --- | --- | --- | --- | --- | --- | --- | --- | --- | --- | --- |
| [2H]C1([2H])C([2H])([2H])C([2H])([2H])C([2H])(C(=O)N2CC(=O)N3CCc4ccccc4[C@@H]3C2)C([2H])([2H])C1([2H])[2H] [102(a), (R)-2-(Cyclohexane-d11-carbonyl)-2,3,6,7-tetrahydro-1H-pyrazino[2,1-a]isoquinolin-4(11bH)-one] | 57.4 min | 53.6 min | 50.1 min | 46 min | 51.8 ± 4.9 min | – | – | – | – | – | – | – | – |
| [2H]C1([2H])CC(C(=O)N2CC(=O)N3CCc4ccccc4C3C2)CC([2H])([2H])C1([2H])[2H] (centres unmarked) [Compound 109, 2-(Cyclohexane-3,3,4,4,5,5,-d6-carbonyl)-2,3,6,7-tetrahydro-1H-pyrazino[2,1-a]isoquinolin-4(11bH)-one] | – | – | – | – | – | 55.7 min | 53.5 min | 46.4 min | 51.2 min | 52.2 ± 4.6 min | – | – | – |
| [2H]C1([2H])C(C(=O)N2CC(=O)N3CCc4ccccc4[C@@H]3C2)C([2H])([2H])C([2H])([2H])C([2H])([2H])C1([2H])[2H] [103(a), (R)-2-(2,2,3,3,4,4,5,5,6,6-d10-Cyclohexanecarbonyl)-2,3,6,7-tetrahydro-1H-pyrazino[2,1-a]isoquinolin-4(11bH)-one] | 52.7 min | – | 50 min | 55.5 min | 50 ± 5.9 min | – | – | – | – | – | – | – | – |
| [2H]C1([2H])C(C(=O)N2CC(=O)N3CCc4ccccc4C3C2)C([2H])([2H])C([2H])([2H])C([2H])([2H])C1([2H])[2H] (centres unmarked) [Compound 103, 2-(Cyclohexane-2,2,3,3,4,4,5,5,6,6-d10-carbonyl)-2,3,6,7-tetrahydro-1H-pyrazino[2,1-a]isoquinolin-4(11bH)-one] | – | – | – | – | – | 65.1 min | 51.6 min | 60.6 min | 69.3 min | 61.7 ± 7.6 min | – | – | – |
| O=C(C1CCCCC1)N1CC(=O)N2CCc3ccccc3C2C1 (centres unmarked) [Praziquantel, 2-(cyclohexylcarbonyl)-1,2,3,6,7,11b-hexahydro-4H-pyrazino[2,1-a]isoquinolin-4-one, reference compound] | 29.5 min | 31.5 min | 35.1 min | 30.5 min | 31.7 ± 2.5 min | 41.2 min | 43.8 min | 30.6 min | 36.9 min | – | 44.7 min | 38.9 ± 3.9 min | portion of a dose excreted in the kidneys [2]: Approximately 80%; portion of the renally excreted dose in the form of metabolites [2]: > 99% |
| [2H]C1([2H])C([2H])([2H])C([2H])([2H])C([2H])(C(=O)N2CC(=O)N3CCc4ccccc4C3C2)C([2H])([2H])C1([2H])[2H] (centres unmarked) [Compound 102, 2-(Cyclohexane-d11-carbonyl)-2,3,6,7-tetrahydro-1H-pyrazino[2,1-a]isoquinolin-4(11bH)-one] | – | – | – | – | – | 54.8 min | 50.6 min | 44.9 min | 52.4 min | 50.7 ± 4.2 min | 66.2 min | 55.7 ± 8.7 min | half-life at 1 μM [1, 15]: 56.4 min; half-life at 1 μM [1, 16]: 55.4 min; half-life at 1 μM [1, 17]: 44.8 min |
| [2H]C1([2H])CCC(C(=O)N2CC(=O)N3CCc4ccccc4[C@@H]3C2)CC1 [101(a), (R)-2-(4,4-d2-Cyclohexanecarbonyl)-2,3,6,7-tetrahydro-1H-pyrazino[2,1-a]isoquinolin-4(11bH)-one] | 48.9 min | 46.7 min | 56.3 min | 45.8 min | 49.4 ± 4.8 min | – | – | – | – | – | – | – | – |
| O=C(C1CCCCC1)N1CC(=O)N2CCc3ccccc3[C@@H]2C1 [(R) Praziquantel] | – | – | – | – | – | – | – | – | – | – | – | – | schistosomicidal activity (schistosoma): has schistosomicidal activity |
| [2H]C1([2H])CC(C(=O)N2CC(=O)N3CCc4ccccc4[C@@H]3C2)CC([2H])([2H])C1([2H])[2H] [109(a), (R)-2-(3,3,4,4,5,5-d6-Cyclohexanecarbonyl)-2,3,6,7-tetrahydro-1H-pyrazino[2,1-a]isoquinolin-4(11bH)-one] | 39.5 min | 38.7 min | 43.2 min | 55.4 min | 44.2 ± 7.7 min | – | – | – | – | – | – | – | – |
| [2H]C1([2H])CCC(C(=O)N2CC(=O)N3CCc4ccccc4C3C2)CC1 (centres unmarked) [Compound 101, 2-(Cyclohexane-4,4-d2-carbonyl)-2,3,6,7-tetrahydro-1H-pyrazino[2,1-a]isoquinolin-4(11bH)-one] | – | – | – | – | – | 56.7 min | 53.9 min | – | 60.1 min | 52.2 ± 9.7 min | 52.7 min | 46.7 ± 4.4 min | half-life at 1 μM [1, 15]: 47.4 min; half-life at 1 μM [1, 16]: 43.6 min; half-life at 1 μM [1, 17]: 43.1 min |
